From US11130756B2, “[1,2,4]Triazolo[4,3-A]pyridinyl substituted indole compounds” (BRISTOL-MYERS SQUIBB COMPANY, priority 2017, dated 2021) come the findings set out here.

Holding throughout (assay type): cell-based
In one assay the target is T1, human TLR7 (Homo sapiens, UniProt Q9NYK1).
T1 construct: host or cells: HEK-Blue cells
T1 sequence (Q9NYK1 27-1049): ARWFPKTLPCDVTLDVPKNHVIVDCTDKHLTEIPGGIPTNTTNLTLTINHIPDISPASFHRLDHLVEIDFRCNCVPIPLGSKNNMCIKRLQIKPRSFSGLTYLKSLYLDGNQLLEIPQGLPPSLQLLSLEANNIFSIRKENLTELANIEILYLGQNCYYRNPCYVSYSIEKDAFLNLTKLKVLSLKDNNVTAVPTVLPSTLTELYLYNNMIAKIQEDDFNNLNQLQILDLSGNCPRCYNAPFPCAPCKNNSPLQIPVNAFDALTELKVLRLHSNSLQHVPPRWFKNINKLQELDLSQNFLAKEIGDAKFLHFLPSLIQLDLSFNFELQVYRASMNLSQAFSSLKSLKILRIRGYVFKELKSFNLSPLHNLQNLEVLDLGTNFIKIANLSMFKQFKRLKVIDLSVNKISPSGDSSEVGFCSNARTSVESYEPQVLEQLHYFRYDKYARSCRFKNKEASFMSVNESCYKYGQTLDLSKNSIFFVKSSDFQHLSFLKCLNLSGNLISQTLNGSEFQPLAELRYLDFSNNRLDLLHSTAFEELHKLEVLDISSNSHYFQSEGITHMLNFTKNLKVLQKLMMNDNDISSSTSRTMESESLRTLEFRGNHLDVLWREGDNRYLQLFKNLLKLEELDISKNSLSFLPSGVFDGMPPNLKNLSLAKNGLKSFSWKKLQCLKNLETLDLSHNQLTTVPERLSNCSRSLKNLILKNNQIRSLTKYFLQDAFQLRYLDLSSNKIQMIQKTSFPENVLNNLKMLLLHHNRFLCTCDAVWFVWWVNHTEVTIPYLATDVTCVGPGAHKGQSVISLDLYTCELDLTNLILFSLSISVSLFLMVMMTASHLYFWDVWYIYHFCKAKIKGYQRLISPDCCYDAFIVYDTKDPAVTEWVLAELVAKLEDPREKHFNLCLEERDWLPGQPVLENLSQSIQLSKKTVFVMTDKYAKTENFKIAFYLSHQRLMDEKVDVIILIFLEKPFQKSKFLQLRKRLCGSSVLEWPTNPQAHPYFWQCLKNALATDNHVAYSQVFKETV
Description: TLR7 inhibition reporter assay (HEK-Blue, SEAP). The settings on record: HEK-Blue cells overexpressing human TLR7, gardiquimod 7.5 μM, 22 hour incubation. An outline of the steps:
(§1)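 Compound treatment: 30 min, RT, 0.05 nM–50 μM final. Agonist: TLR7 gardiquimod 7.5 μM; TLR8 R848 15.9 μM; TLR9 ODN2006 5 nM. Incubation 22 h, 37 °C, 5% CO2. Readout SEAP, HEK-Blue Detection.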

Another assay has as its target T2, human TLR9 (Homo sapiens, UniProt Q9NR96).
T2 construct: host or cells: HEK-Blue cells
T2 sequence (Q9NR96 26-1032): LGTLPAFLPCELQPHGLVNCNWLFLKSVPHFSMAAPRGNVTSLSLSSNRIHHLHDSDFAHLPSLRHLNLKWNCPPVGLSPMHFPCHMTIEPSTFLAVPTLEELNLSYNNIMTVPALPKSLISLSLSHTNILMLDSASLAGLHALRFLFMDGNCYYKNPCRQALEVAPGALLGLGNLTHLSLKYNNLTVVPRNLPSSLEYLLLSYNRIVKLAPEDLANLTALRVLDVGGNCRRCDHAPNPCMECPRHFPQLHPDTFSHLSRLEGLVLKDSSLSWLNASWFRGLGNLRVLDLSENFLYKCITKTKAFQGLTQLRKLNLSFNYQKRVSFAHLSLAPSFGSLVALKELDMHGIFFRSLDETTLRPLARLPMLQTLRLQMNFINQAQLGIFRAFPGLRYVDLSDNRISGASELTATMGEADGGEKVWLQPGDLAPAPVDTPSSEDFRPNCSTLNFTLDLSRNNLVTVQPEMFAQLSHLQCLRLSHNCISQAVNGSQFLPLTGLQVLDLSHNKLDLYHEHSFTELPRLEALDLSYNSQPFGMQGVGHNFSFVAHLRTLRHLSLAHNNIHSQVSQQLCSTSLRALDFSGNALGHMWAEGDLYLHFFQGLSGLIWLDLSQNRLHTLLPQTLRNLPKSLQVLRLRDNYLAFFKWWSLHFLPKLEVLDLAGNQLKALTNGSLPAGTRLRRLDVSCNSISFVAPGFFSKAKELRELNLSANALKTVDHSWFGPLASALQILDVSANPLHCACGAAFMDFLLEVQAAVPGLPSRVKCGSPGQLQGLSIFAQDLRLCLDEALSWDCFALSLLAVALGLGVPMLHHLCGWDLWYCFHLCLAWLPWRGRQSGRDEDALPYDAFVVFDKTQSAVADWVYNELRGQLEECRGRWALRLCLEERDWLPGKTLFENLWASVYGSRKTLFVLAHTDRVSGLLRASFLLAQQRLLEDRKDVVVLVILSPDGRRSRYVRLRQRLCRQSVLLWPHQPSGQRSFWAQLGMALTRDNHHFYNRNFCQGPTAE
Description: TLR9 inhibition reporter assay (HEK-Blue, SEAP). The settings on record: HEK-Blue cells overexpressing human TLR9, ODN2006 5 nM, 22 hour incubation. In outline: as §1

For the next assay, the target named is T3, human TLR8 (Homo sapiens, UniProt Q9NR97).
T3 construct: host or cells: HEK-Blue cells
T3 sequence (Q9NR97 27-1041): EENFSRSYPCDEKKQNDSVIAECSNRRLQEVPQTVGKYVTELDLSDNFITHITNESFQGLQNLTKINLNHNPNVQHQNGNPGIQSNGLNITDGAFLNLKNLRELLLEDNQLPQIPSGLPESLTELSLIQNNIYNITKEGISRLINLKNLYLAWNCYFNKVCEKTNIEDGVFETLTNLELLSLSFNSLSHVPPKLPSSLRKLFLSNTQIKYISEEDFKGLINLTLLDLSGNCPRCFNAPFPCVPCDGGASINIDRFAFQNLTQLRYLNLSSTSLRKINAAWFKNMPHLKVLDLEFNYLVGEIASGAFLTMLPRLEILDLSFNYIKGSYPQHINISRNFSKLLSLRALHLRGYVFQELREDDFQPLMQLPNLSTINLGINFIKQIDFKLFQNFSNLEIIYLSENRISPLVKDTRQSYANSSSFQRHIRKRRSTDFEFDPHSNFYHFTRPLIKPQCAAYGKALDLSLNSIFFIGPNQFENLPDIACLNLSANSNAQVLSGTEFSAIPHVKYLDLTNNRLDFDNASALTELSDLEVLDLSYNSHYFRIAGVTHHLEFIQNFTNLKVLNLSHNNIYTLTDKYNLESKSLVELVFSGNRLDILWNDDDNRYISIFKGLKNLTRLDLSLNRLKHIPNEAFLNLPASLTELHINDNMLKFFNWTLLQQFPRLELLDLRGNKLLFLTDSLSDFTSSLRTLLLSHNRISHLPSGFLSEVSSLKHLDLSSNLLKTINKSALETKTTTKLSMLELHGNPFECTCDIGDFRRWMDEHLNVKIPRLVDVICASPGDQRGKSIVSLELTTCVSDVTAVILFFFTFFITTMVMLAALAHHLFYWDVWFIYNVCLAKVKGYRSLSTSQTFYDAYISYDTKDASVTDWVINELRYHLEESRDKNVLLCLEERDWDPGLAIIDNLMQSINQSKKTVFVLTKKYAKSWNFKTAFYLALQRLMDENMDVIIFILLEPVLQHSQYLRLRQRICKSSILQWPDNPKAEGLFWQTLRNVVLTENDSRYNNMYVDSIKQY
As to the kind of experiment: TLR8 inhibition reporter assay (HEK-Blue, SEAP). The settings on record: HEK-Blue cells overexpressing human TLR8, R848 15.9 μM, 22 hour incubation. An outline of the steps: as §1

For the compound `Cc1cc(-c2[nH]c3ccc(C4CCN(C5CCOCC5)CC4)cc3c2C(C)C)cn2cnnc12` [Example 69, 6-(3-isopropyl-5-(1-(tetrahydro-2H-pyran-4-yl)piperidin-4-yl)-1H-indol-2-yl)-8-methyl-[1,2,4]triazolo[4,3-a]pyridine], the IC50 against human TLR7 came out at 0.6 nM; against human TLR9 it was 1040 nM; against human TLR8, 3 nM.
Consider `Cc1c(-c2[nH]c3ccc(C4CCN(C5CCOCC5)CC4)cc3c2C(C)C)ccc2nncn12` [Example 70, 6-(3-isopropyl-5-(1-(tetrahydro-2H-pyran-4-yl)piperidin-4-yl)-1H-indol-2-yl)-5-methyl-[1,2,4]triazolo[4,3-a]pyridine], for which the figures for the IC50 on human TLR7, against human TLR9 and against human TLR8 were 83.5 nM, 1070 nM and 10.8 nM, respectively.
Take `Cc1cc(-c2[nH]c3ccc(C4CCN(Cc5ccn(C)n5)CC4)cc3c2C(C)C)cn2c(C)nnc12` [Example 71, 6-(3-isopropyl-5-(1-((1-methyl-1H-pyrazol-3-yl)methyl)piperidin-4-yl)-1H-indol-2-yl)-3,8-dimethyl-[1,2,4]triazolo[4,3-a]pyridine]: the half-maximal inhibitory concentration (IC50) on human TLR7 is 12.7 nM; on human TLR9, 1130 nM; on human TLR8 it was 1.8 nM.
Take `Cc1cc(-c2[nH]c3ccc(C4CCN(C5COC5)CC4)cc3c2C(C)C)cn2c(C)nnc12` [Example 72, 6-(3-isopropyl-5-(1-(oxetan-3-yl)piperidin-4-yl)-1H-indol-2-yl)-3,8-dimethyl-[1,2,4]triazolo[4,3-a]pyridine]: the IC50 at human TLR7 turned out to be 11.8 nM; against human TLR9 it was 7870 nM; on human TLR8 it was 11.7 nM.
On to `Cc1cc(-c2[nH]c3ccc(C4CCN(C5CCOCC5)CC4)cc3c2C(C)C)cn2c(C)nnc12` [Example 73, 6-(3-isopropyl-5-(1-(tetrahydro-2H-pyran-4-yl)piperidin-4-yl)-1H-indol-2-yl)-3,8-dimethyl-[1,2,4]triazolo [4,3-a]pyridine], for which the figures for the half-inhibitory concentration (IC50) against human TLR7, against human TLR9 and against human TLR8 were 20.4 nM, 562 nM and 1.9 nM, respectively.
As to `Cc1cc(-c2[nH]c3ccc(C4CCN(Cc5ccn(C)n5)CC4)cc3c2C(C)C)cn2cnnc12` [Example 74, 6-(3-isopropyl-5-(1-((1-methyl-1H-pyrazol-3-yl)methyl)piperidin-4-yl)-1H-indol-2-yl)-8-methyl-[1,2,4]triazolo[4,3-a]pyridine], the IC50 at human TLR7 was 1.2 nM; against human TLR9, 908 nM; against human TLR8, 1.7 nM.
`Cc1c(-c2[nH]c3ccc(C4CCN(C5COC5)CC4)cc3c2C(C)C)cn2cnnc2c1C` [Example 75, 6-(3-isopropyl-5-(1-(oxetan-3-yl)piperidin-4-yl)-1H-indol-2-yl)-7,8-dimethyl-[1,2,4]triazolo[4,3-a]pyridine]: the IC50 against human TLR7 is 3.3 nM; against human TLR9 it was 23800 nM; against human TLR8, 21.7 nM.
Consider `Cc1cc(-c2[nH]c3ccc(C4CCN(C5COC5)CC4)cc3c2C(C)C)c(C)n2cnnc12` [Example 76, 6-(3-isopropyl-5-(1-(oxetan-3-yl)piperidin-4-yl)-1H-indol-2-yl)-5,8-dimethyl-[1,2,4]triazolo[4,3-a]pyridine], for which the half-maximal inhibitory concentration (IC50) at human TLR7 was determined as 106 nM; on human TLR9 it was 16100 nM; against human TLR8, 13.1 nM.
For `Cc1cc(-c2[nH]c3ccc(C4CCN(C5CCOCC5)CC4)cc3c2C(C)C)c(C)n2cnnc12` [Example 77, 6-(3-isopropyl-5-(1-(tetrahydro-2H-pyran-4-yl)piperidin-4-yl)-1H-indol-2-yl)-5,8-dimethyl-[1,2,4]triazolo[4,3-a]pyridine] the same measures were 55.9 nM, 4190 nM and 3.6 nM.
As for `Cc1c(-c2[nH]c3ccc(C4CCN(C5CCOCC5)CC4)cc3c2C(C)C)cn2cnnc2c1C` [Example 78, 6-(3-isopropyl-5-(1-(tetrahydro-2H-pyran-4-yl)piperidin-4-yl)-1H-indol-2-yl)-7,8-dimethyl-[1,2,4]triazolo[4,3-a]pyridine], the IC50 against human TLR7 turned out to be 1.3 nM; at human TLR9, 1780 nM; on human TLR8, 4.6 nM.
For `Cc1c(-c2[nH]c3ccc(C4CCN(CC5(C)COC5)CC4)cc3c2C(C)C)cn2cnnc2c1C` [Example 79, 6-(3-isopropyl-5-(1-((3-methyloxetan-3-yl)methyl)piperidin-4-yl)-1H-indol-2-yl)-7,8-dimethyl-[1,2,4]triazolo[4,3-a]pyridine], the IC50 at human TLR7 worked out at 1.1 nM; against human TLR9, 3530 nM; against human TLR8, 2 nM.
For the compound `Cc1c(-c2[nH]c3ccc(C4CCN(CC5(C)COC5)CC4)cc3c2C(C)C)cn2cnnc2c1Cl` [Example 80, 8-chloro-6-(3-isopropyl-5-(1-((3-methyloxetan-3-yl)methyl)piperidin-4-yl)-1H-indol-2-yl)-7-methyl-[1,2,4]triazolo[4,3-a)pyridine], the IC50 against human TLR7 came to 2.3 nM; at human TLR9, 4550 nM; against human TLR8, 5.8 nM.
